Laboratory results from ChEMBL document CHEMBL1909046, “DrugMatrix in vitro pharmacology data”.

How the values were obtained:
Cytochrome P450 3A4 = Cytochrome P450 3A4 (Homo sapiens, UniProt P08684); settings: bti-tn-5b1-4; further: in other assays of this panel Not Active means under 50% inhibition at 10 µM
[1] = biological target: Protein kinase C alpha type (Homo sapiens, UniProt P17252); format: cell-based; settings: sf9;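 further: inhibition of PKCalpha kinase activity measured in an enzyme assay with histone as the phosphorylation substrate; in other assays of this panel Not Active means under 50% inhibition at 10 µM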
[2] = biological target: T1, Vasoactive intestinal polypeptide receptor 1 (Homo sapiens, UniProt P32241); format: cell membranes, Membrane; settings: ht-29; further: in other assays of this panel Not Active means under 50% inhibition at 10 µM
T1 sequence (P32241 whole entry): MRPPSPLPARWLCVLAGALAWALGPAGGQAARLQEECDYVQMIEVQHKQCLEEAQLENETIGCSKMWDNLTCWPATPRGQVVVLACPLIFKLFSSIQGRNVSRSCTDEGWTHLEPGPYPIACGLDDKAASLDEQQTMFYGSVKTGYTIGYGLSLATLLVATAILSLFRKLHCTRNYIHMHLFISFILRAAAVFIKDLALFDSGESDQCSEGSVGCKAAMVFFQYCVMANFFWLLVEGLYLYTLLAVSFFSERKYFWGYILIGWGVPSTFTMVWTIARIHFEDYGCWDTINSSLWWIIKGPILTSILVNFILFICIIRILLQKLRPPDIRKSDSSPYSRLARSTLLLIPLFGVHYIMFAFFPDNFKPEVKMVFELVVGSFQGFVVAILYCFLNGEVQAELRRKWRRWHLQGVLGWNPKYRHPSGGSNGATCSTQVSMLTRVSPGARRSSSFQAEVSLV

[3] = biological target: T2, Alpha-1D adrenergic receptor (Homo sapiens, UniProt P25100); format: cell membranes, HEK293, Membrane; further: in other assays of this panel Not Active means under 50% inhibition at 10 µM
T2 sequence (P25100 whole entry): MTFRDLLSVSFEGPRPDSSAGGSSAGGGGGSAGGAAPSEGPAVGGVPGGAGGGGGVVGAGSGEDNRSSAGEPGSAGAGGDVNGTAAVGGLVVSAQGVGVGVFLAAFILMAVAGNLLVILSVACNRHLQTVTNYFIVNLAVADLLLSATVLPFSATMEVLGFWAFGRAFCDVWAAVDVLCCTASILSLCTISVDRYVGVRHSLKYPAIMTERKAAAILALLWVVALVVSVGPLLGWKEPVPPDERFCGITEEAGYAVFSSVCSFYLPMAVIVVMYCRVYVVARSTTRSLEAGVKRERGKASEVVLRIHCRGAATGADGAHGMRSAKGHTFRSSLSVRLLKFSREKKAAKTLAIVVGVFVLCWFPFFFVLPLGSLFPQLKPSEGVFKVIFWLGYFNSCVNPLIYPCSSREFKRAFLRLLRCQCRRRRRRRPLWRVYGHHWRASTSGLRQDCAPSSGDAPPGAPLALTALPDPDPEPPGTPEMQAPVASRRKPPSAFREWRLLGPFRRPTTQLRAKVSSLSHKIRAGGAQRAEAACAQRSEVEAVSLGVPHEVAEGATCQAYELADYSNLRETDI

[4] = biological target: Mitogen-activated protein kinase 3 (Homo sapiens, UniProt P27361); assay: DRUGMATRIX: Protein Serine/Threonine Kinase, ERK1 enzyme inhibition (substrate: Myelin Basic Protein); design: species or system Escherichia coli; settings: Not Active = under 50% inhibition at 10 µM
[5] = biological target: Mitogen-activated protein kinase 1 (Homo sapiens, UniProt P28482); assay: DRUGMATRIX: Protein Serine/Threonine Kinase, ERK2 enzyme inhibition (substrate: Myelin Basic Protein); design: species or system Escherichia coli; settings: Not Active = under 50% inhibition at 10 µM
[6] = biological target: T3, Nitric oxide synthase, inducible (Mus musculus, UniProt P29477); design: species or system Escherichia coli
T3 sequence (P29477 whole entry): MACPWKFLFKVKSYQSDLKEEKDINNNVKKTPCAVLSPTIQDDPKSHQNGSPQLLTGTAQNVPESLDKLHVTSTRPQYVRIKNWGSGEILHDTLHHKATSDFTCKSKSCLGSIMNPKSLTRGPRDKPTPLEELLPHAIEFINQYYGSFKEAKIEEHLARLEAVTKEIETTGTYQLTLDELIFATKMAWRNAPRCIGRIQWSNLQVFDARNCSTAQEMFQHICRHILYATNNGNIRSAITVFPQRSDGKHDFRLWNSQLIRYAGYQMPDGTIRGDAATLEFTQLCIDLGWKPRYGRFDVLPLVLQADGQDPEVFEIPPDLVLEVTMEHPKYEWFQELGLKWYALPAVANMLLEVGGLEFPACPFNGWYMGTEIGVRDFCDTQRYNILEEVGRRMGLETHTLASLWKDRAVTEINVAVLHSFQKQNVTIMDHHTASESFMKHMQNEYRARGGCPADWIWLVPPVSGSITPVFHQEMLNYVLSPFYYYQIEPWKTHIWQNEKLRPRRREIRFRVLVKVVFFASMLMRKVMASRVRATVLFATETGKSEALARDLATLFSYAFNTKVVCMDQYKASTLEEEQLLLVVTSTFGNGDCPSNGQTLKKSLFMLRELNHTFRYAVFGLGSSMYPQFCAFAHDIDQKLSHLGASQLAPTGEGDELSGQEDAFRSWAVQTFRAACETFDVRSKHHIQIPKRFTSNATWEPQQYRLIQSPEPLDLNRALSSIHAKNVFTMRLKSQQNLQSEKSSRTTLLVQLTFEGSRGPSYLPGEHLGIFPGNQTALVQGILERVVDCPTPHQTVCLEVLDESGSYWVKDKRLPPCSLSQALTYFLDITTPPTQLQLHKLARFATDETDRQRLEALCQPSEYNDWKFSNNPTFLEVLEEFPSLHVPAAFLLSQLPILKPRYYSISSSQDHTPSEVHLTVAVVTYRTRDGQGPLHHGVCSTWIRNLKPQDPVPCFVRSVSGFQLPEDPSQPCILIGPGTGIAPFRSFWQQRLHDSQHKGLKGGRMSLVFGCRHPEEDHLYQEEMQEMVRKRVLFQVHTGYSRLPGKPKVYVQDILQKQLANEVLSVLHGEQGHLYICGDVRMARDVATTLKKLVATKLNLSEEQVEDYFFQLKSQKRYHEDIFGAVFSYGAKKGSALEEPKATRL

[7] = DRUGMATRIX: Glutamate, AMPA radioligand binding (ligand: [3H] AMPA); format: cell membranes, Rattus norvegicus, Wistar, Cerebral cortex, Membrane; settings: Not Active = under 50% inhibition at 10 µM

Sequence of Cytochrome P450 3A4 (P08684 whole entry): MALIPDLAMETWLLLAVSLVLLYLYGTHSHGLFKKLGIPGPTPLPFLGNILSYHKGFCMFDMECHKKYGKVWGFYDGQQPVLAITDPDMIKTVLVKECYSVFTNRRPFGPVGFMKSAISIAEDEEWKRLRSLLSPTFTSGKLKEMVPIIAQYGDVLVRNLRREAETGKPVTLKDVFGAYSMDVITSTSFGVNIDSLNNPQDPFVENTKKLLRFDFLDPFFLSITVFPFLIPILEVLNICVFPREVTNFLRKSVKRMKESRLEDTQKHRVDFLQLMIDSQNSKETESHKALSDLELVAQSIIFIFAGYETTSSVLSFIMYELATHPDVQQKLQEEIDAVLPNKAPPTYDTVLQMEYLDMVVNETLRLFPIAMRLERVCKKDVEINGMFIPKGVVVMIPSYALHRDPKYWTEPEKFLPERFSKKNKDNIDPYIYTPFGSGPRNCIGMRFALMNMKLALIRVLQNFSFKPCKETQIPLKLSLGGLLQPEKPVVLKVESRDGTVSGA
Sequence of Mitogen-activated protein kinase 1 (P28482 whole entry): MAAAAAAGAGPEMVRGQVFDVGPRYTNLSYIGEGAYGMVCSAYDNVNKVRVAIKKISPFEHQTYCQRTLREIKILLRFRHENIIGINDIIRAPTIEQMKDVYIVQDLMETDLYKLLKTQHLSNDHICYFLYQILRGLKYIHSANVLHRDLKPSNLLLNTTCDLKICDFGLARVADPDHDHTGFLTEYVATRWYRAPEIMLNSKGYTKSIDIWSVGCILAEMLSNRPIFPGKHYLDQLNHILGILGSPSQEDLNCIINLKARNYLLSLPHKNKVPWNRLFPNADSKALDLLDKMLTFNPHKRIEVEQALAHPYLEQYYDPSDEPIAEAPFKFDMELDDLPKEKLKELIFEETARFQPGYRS
Sequence of Mitogen-activated protein kinase 3 (P27361 whole entry): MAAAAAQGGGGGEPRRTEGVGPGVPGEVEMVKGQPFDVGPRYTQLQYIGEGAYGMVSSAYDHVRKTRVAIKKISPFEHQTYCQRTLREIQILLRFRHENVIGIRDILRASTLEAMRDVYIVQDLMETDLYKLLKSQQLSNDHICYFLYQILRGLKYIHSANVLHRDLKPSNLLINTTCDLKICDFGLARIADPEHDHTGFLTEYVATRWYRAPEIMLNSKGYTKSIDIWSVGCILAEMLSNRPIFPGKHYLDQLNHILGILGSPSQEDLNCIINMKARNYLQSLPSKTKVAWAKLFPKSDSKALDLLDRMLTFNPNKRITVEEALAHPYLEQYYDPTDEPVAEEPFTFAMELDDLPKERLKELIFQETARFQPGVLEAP

| SMILES | IC50 (Cytochrome P450 3A4) | Ki (Cytochrome P450 3A4) | IC50 [1] | IC50 [2] | IC50 ([3]; hek293) | IC50 [4] | IC50 [5] | IC50 [6] | IC50 [7] | Ki [7] | IC50 ([3]; read-out: IC50) [nM] | Ki ([3]; read-out: Ki) [nM] |
| --- | --- | --- | --- | --- | --- | --- | --- | --- | --- | --- | --- | --- |
| COCCCOc1ccnc(C[S+]([O-])c2nc3ccccc3[nH]2)c1C (stereo unspecified) [RABEPRAZOLE] | Not Active | Not Active | Not Active | Not Active | Not Active | Not Active | Not Active | Not Active | Not Active | Not Active | – | – |
| O=C(c1ccc(OCCN2CCCCC2)cc1)c1c(-c2ccc(O)cc2)sc2cc(O)ccc12 [RALOXIFENE] | Not Active | Not Active | Not Active | Not Active | – | Not Active | Not Active | Not Active | Not Active | Not Active | 973 | 478 |
| CNC(=C[N+](=O)[O-])NCCSCc1ccc(CN(C)C)o1 [RANITIDINE] | Not Active | Not Active | Not Active | Not Active | Not Active | Not Active | Not Active | Not Active | Not Active | Not Active | – | – |
| CO[C@H]1/C=C/O[C@@]2(C)Oc3c(C)c(O)c4c(c3C2=O)C2=NC3(CCN(CC(C)C)CC3)NC2=C(NC(=O)/C(C)=C\C=C\[C@H](C)[C@H](O)[C@@H](C)[C@@H](O)[C@@H](C)[C@H](OC(C)=O)[C@@H]1C)C4=O [RIFABUTIN] | Not Active | Not Active | Not Active | Not Active | Not Active | Not Active | Not Active | Not Active | Not Active | Not Active | – | – |
| CC(C)CC(N(C)C)C1(c2ccc(Cl)cc2)CCC1 (stereo unspecified) [SIBUTRAMINE] | Not Active | Not Active | Not Active | Not Active | Not Active | Not Active | Not Active | Not Active | Not Active | Not Active | – | – |
| [H]/N=C(/N)N[C@H]1[C@H](O)[C@@H](O)[C@H](O[C@@H]2O[C@@H](C)[C@](O)(C=O)[C@H]2O[C@@H]2O[C@@H](CO)[C@H](O)[C@@H](O)[C@@H]2NC)[C@@H](N/C(N)=N\[H])[C@@H]1O [STREPTOMYCIN] | Not Active | Not Active | Not Active | Not Active | Not Active | Not Active | Not Active | Not Active | Not Active | Not Active | – | – |
| COc1cc(NS(=O)(=O)c2ccc(N)cc2)nc(OC)n1 [SULFADIMETHOXINE] | Not Active | Not Active | Not Active | Not Active | Not Active | Not Active | Not Active | Not Active | Not Active | Not Active | – | – |
| Cc1cc(C)nc(NS(=O)(=O)c2ccc(N)cc2)n1 [SULFAMETHAZINE] | Not Active | Not Active | Not Active | Not Active | Not Active | Not Active | Not Active | Not Active | Not Active | Not Active | – | – |
| C[C@]1(Cn2ccnn2)[C@H](C(=O)O)N2C(=O)C[C@H]2S1(=O)=O [TAZOBACTAM] | Not Active | Not Active | Not Active | Not Active | Not Active | Not Active | Not Active | Not Active | Not Active | Not Active | – | – |
| CN1C(C(=O)Nc2ccccn2)=C(O)c2sccc2S1(=O)=O [TENOXICAM] | Not Active | Not Active | Not Active | Not Active | Not Active | Not Active | Not Active | Not Active | Not Active | Not Active | – | – |
| CC(C)(C)c1ccc(C(O)CCCN2CCC(C(O)(c3ccccc3)c3ccccc3)CC2)cc1 (stereo unspecified) [TERFENADINE] | Not Active | Not Active | Not Active | Not Active | Not Active | Not Active | Not Active | Not Active | Not Active | Not Active | – | – |
| O=C1CCC(N2C(=O)c3ccccc3C2=O)C(=O)N1 (stereo unspecified) [THALIDOMIDE] | Not Active | Not Active | Not Active | Not Active | Not Active | Not Active | Not Active | Not Active | Not Active | Not Active | – | – |
| Cc1cccc(Nc2ccncc2S(=O)(=O)NC(=O)NC(C)C)c1 [TORSEMIDE] | Not Active | Not Active | Not Active | Not Active | Not Active | Not Active | Not Active | Not Active | Not Active | Not Active | – | – |
| CC(C)C[C@H](NC(=O)[C@@H](O)[C@H](N)Cc1ccccc1)C(=O)O [UBENIMEX] | Not Active | Not Active | Not Active | Not Active | Not Active | Not Active | Not Active | Not Active | Not Active | Not Active | – | – |
| Cc1onc(-c2ccccc2)c1-c1ccc(S(N)(=O)=O)cc1 [VALDECOXIB] | Not Active | Not Active | Not Active | Not Active | Not Active | Not Active | Not Active | Not Active | Not Active | Not Active | – | – |
| CC[C@]1(O)C[C@@H]2CN(CCc3c([nH]c4ccccc34)[C@@](C(=O)OC)(c3cc4c(cc3OC)N(C)[C@H]3[C@@](O)(C(=O)OC)[C@H](OC(C)=O)[C@]5(CC)C=CCN6CC[C@]43[C@@H]65)C2)C1 [VINBLASTINE] | Not Active | Not Active | Not Active | Not Active | Not Active | Not Active | Not Active | Not Active | Not Active | Not Active | – | – |
| CC(=O)CC(c1ccccc1)c1c(O)c2ccccc2oc1=O (stereo unspecified) [WARFARIN] | Not Active | Not Active | Not Active | Not Active | Not Active | Not Active | Not Active | Not Active | Not Active | Not Active | – | – |
